Key:
[1] = target: T1, hPTP1B1–400 (Homo sapiens, UniProt P18031); assay: PTP1B inhibition, pNPP hydrolysis, long form; format: biochemical; settings: pNPP substrate, 15 min 37 °C, pH 6.8; ± S.D
T1 construct: h PTP1B 1–400 IC 50 (μM ± S.D); made in house
T1 sequence (P18031 1-400): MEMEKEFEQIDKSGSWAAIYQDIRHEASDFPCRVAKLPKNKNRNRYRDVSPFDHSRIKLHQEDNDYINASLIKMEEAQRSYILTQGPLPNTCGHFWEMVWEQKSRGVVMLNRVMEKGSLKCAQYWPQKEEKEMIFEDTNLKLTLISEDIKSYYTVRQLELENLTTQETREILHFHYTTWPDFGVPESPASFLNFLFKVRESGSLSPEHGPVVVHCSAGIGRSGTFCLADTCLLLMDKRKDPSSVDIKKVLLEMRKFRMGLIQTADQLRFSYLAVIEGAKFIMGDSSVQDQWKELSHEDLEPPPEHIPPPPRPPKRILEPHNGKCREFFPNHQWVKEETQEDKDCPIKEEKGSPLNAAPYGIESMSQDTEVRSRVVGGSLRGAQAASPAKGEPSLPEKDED
Experimental: The inhibitory activity of PTP1B was assessed using the long form of the PTP1B enzyme (hPTP1B1–400). This enzyme comprises a highly conserved N-terminal catalytic domain, known as the PTP domain (PTP1B1–300), in addition to an intrinsically disordered regulatory domain (PTP1B301–400).
The IC50 values obtained from these tests are detailed in Table .
Aliquots of 0–10 μL of the test compounds (triplicate) were taken and incubated for 15 min at 37 °C with 85 μL of Tris buffer solution (50 mM, pH 6.8) containing PTP1B enzyme and 5 μL of p-nitrophenyl phosphate substrate (pNPP, 10 mM). The absorbance of the hydrolysis product, p-nitrophenol (pNP), was measured at 405 nm using a 96-microplate absorbance reader (Accuris SmartReader 96). The inhibitory activity was determined according to eq . %enzyme=(A405b/A405c)×100 1 Where: % enzyme is the percentage of inhibition for PTP1B or TCPTP
The IC50 was calculated using regression analysis, eq : %inhibition=A100/1+(I/IC50)^s 2 Where: A100: Maximum inhibition

[2] = test system: STZ-induced diabetic rats; settings: earlier study of the group; cited from earlier work
[3] = test system: HepG2 cells; assay: Western blotting, HepG2 normal model; format: cell-based, human; settings: 24 h
Experimental: (§1) HepG2 cells were obtained directly from ATCC (HB-8065) and cultured in DMEM with low glucose, supplemented with fetal bovine serum, 100 U/mL penicillin G, and […] streptomycin. The media was freshly prepared and sterilized by filtration. Cells were maintained with a maximum of 10 passages before being discarded. For cell counting, the cells were washed twice with phosphate-buffered saline (PBS), trypsinized, and counted using a Neubauer chamber. For the insulin-resistant model, 75,000 cells per well were seeded in 6-well plates at 37 °C in 5% CO2 and cultured for 72 h. Subsequently, insulin (0.1 μM) was added to induce insulin resistance for 24 h. After this period, inhibitors were incubated for 24 h, followed by a final 30 min insulin stimulation (0.1 μM) before protein extraction. For the normal model, 75,000 cells per well were seeded in 6-well plates at 37 °C in 5% CO2 and cultured for 96 h. After that, the cells were incubated with the inhibitors for 24 h, followed by protein extraction.
(§2) Treated cells were washed twice with 1 mL of PBS, and proteins were extracted using 300 μL of a buffer solution containing 10% sodium deoxycholate in 10% TEAB, supplemented with a protease and phosphatase inhibitor cocktail. The extracts were heated at 80 °C for 5 min and dissociated by repeated passages through an insulin syringe. The cell extracts were centrifuged at 15,000 rpm for 15 min at 4 °C, and the supernatant was collected. Protein quantification was performed using the bicinchoninic acid assay, and aliquots were prepared for Western blotting. SDS-PAGE was conducted, and proteins were transferred onto a nitrocellulose membrane. The membrane was blocked with 10% skim milk in TBST for 1 h and incubated overnight with primary antibodies (1:400 dilution). Secondary antibodies conjugated to horseradish peroxidase were diluted 1:2,000, and the membranes were incubated for 1 h at room temperature. Blots were visualized using the ChemiDoc MP (Bio-Rad), and densitometric analysis was performed with ImageJ (U.S. National Institutes of Health). Statistical analyses were conducted using GraphPad Prism 8.0.
compounds at 24 h of treatment. β-actin was employed as loading control. b) Densitometric analysis of western blot images
employing ImageJ analysis software. Bar graphs represent the mean ± SEM of normalized values. The control levels were set to
1. Asterisks indicate statistical significance according to the Dunn test. p* < 0.05
(§3) (1 picture or pasted object on this page, not shown here)

[4] = test system: insulin-resistant HepG2 cells; assay: Western blotting, insulin-resistant HepG2 model; format: cell-based, human; settings: 24 h
Experimental: as §1, §2
resistance model in HepG2 cells . a) Western blotting representative analysis (n=3) of PTP1B, p -AKT, p-IRS1 and p-STAT3 levels
of HepG2 cells treated with the compounds at 24 h of treatment. β-actin was employed as loading control. b) Densitometric
analysis of western blot images employing ImageJ analysis software. Bar graphs represent the mean ± SEM of normalized values.
The control levels were set to 1. Asterisks indicate statistical significance according to the Dunn test. p* < 0.05.
as §3

[5] = test system: normoglycemic CD1 mice; assay: Oral glucose tolerance test (OGTT); format: in vivo; settings: 45 mg/kg, glucose 2 g/kg
Experimental: The studies were carried out on compounds 4b, 4g, and 5g using both normoglycemic CD1 mice and a mouse model of noninsulin-dependent diabetes mellitus (NIDDM). An oral glucose tolerance test (OGTT) was conducted on the normoglycemic mice to evaluate the hypoglycemic activity of the compounds, while an insulin tolerance test (ITT) was performed on hyperglycemic CD1 mice to assess the compounds’ capacity to enhance insulin sensitivity in streptozotocin-induced diabetic mice. Pioglitazone and GA were included as positive controls.
Healthy six-week-old male CD-1 mice, weighing between 30 and 40 g, were maintained at a temperature of 25 ± 2 °C, under a 12-h light/dark cycle and 45–65% humidity throughout the experimental period. The mice were provided with a rodent pelleted diet (Harlan Laboratories, Indianapolis, USA) and had access to water ad libitum. Sixteen hours before the experiment, all mice were fasted but still had free access to water. All animal procedures were conducted in accordance with the Mexican Federal Regulations for Animal Experimentation and Care (SAGARPA, NOM-062-ZOO-1999, Mexico) and received approval from the Institutional Animal Care and Use Committee, following guidelines outlined in the US National Institutes of Health publication (No. 85–23, revised 1985).
Animals were categorized into five groups, each consisting of four mice (n = 4). The experimental groups received an oral suspension of compounds 4b, 4g, and 5g, prepared in a 10% Tween 20/water solution, at a dosage of 50 mg/kg body weight. A control group was treated with only the 10% Tween 20 solution. The final group was administered pioglitazone at a dose of 45 mg/kg, which is recognized as a reference drug for insulin sensitization. To evaluate glucose levels, blood samples were collected from the tails of the mice at 0, 30, 60, 90, and 120 min after the administration of the vehicle, test compound, or drug. Blood glucose concentration was measured using a commercial glucometer (Accu-Chek, Performa; Roche) and the enzymatic glucose dehydrogenase method. The percentage variation in glycemia was calculated by comparing the selected postadministration glycemia (G x ) with the initial value (G0) using the following formula: %variationofglycemia=[(Gx−G0)/G0]×100 where G0 represents the initial glycemia values and Gx indicates the glycemia values at +30, + 60, + 90, and +120 min, respectively.
To determine the hypoglycemic effect of the compounds on nondiabetic animals, the compounds 4b, 4g, and 5g were administered intragastrically. Pioglitazone was used as a positive control. After 30 min, five mice/group (CD-1) were subjected to OGTT. The test was performed using glucose (2 g/kg) as substrate.

[6] = test system: STZ-induced diabetic CD-1 mice; assay: Insulin tolerance test (ITT); format: in vivo; settings: 45 mg/kg, insulin 0.75 IU after 30 min
Experimental: The studies were carried out on compounds 4b, 4g, and 5g using both normoglycemic CD1 mice and a mouse model of noninsulin-dependent diabetes mellitus (NIDDM). An oral glucose tolerance test (OGTT) was conducted on the normoglycemic mice to evaluate the hypoglycemic activity of the compounds, while an insulin tolerance test (ITT) was performed on hyperglycemic CD1 mice to assess the compounds' capacity to enhance insulin sensitivity in streptozotocin-induced diabetic mice. Pioglitazone and GA were included as positive controls. […] Healthy six-week-old male CD-1 mice, weighing between 30 and 40 g, were maintained at a temperature of 25 ± 2 °C, under a 12-h light/dark cycle and 45-65% humidity throughout the experimental period. The mice were provided with a rodent pelleted diet (Harlan Laboratories, Indianapolis, USA) and had access to water ad libitum. Sixteen hours before the experiment, all mice were fasted but still had free access to water. All animal procedures were conducted in accordance with the Mexican Federal Regulations for Animal Experimentation and Care (SAGARPA, NOM-062-ZOO-1999, Mexico) and received approval from the Institutional Animal Care and Use Committee, following guidelines outlined in the US National Institutes of Health publication (No. 85-23, revised 1985). Streptozotocin (STZ) was dissolved in citrate buffer (pH 4.5), while nicotinamide was dissolved in a normal physiological saline solution. The noninsulin-dependent diabetes (NIDD) mouse model was induced in overnight-fasted mice through a single intraperitoneal injection of STZ (100 mg/kg). Nicotinamide was administered 15 min prior, at a dose of 20 mg/kg via intraperitoneal injection. […] Roche). […] Animals were categorized into five groups, each consisting of four mice (n = 4). The experimental groups received an oral suspension of compounds 4b, 4g, and 5g, prepared in a 10% Tween 20/water solution, at a dosage of 50 mg/kg body weight. A control group was treated with only the 10% Tween 20 solution. The final group was administered pioglitazone at a dose of 45 mg/kg, which is recognized as a reference drug for insulin sensitization. To evaluate glucose levels, blood samples were collected from the tails of the mice at 0, 30, 60, 90, and 120 min after the administration of the vehicle, test compound, or drug. Blood glucose concentration was measured using a commercial glucometer (Accu-Chek, Performa; Roche) and the enzymatic glucose dehydrogenase method. The percentage variation in glycemia was calculated by comparing the selected postadministration glycemia (G x ) with the initial value (G0) using the following formula: %[…]=[(Gx-G0)/G0]×100 where G0 represents the initial glycemia values and Gx indicates the glycemia values at +30, + 60, + 90, and +120 min, respectively. To evaluate the ability of GA derivatives to enhance insulin sensitivity in STZ-induced diabetic CD-1 mice, compounds 4b, 4g, and 5g were tested. Glycyrrhetinic acid (GA) and Pioglitazone served as positive controls. The GA derivatives and the positive controls were administered to the diabetic animals, followed by the administration of human rapid-acting insulin (0.75 IU) after 30 min. Subsequently, glucose levels were measured every 15 min.

For `Cc1ccc(-n2ncc3c2C(C)(C)[C@@H]2CC[C@]4(C)[C@H](C(=O)C=C5[C@@H]6C[C@@](C)(C(=O)O)CC[C@]6(C)CC[C@]54C)[C@@]2(C)C3)cc1` [FC-122, reference compound], which IC50 [1] is on record?
The IC50 was 2.14 ± 0.15 µM.

What about the antihyperglycemic effects [2] of the same molecule?
The antihyperglycemic effects was “superior antihyperglycemic effects compared to glibenclamide and acarbose, but did not outperform pioglitazone”.

What does the source list for `CN(C)C(=N)N=C(N)N` [Metformin]?
AKT phosphorylation (p-AKT) levels [3]: notable increase; PTP1B levels [3]: neither metformin, ursolic acid, nor the GA derivatives significantly reduced PTP1B levels; AKT phosphorylation (p-AKT) levels [4]: notable increase; PTP1B levels [4]: neither metformin, ursolic acid, nor the GA derivatives significantly reduced PTP1B levels

For `CCc1ccc(CCOc2ccc(CC3SC(=O)NC3=O)cc2)nc1` (centres unmarked) [Pioglitazone, reference compound], which “hypoglycemic effect in OGTT” value [5] is on record?
Its value is “the most significant reduction in the hyperglycemic peak”.

What about the “glycemia variation in ITT” value [6] of the same molecule?
Its value is “markedly decrease glycemia variation”.
